The record followed here is US20130345218A1 (Vertex Pharmaceuticals Incorporated, priority 2010, published 2013).

As usually defined, the IC50 is the concentration that gives 50% inhibition. As a reminder, the EC50 is the concentration at which the effect is half-maximal.

The subject of assay [1] is influenza A virus (A/PR/8/34). As to the kind of experiment: microbe, parasite or virus in culture. The class given is cell-based. As to conditions: Influenza A virus, PR/8, MDCK, 72 h, mean IC50 (mean all); MDCK cells, A/PR/8/34, 72 hours; read-out: Flu, MDCK IC50.
The subject of assay [2] is influenza A virus (A/PR/8/34) minus-strand viral RNA. As to the kind of experiment: microbe, parasite or virus in culture. It counts as cell-based. As to conditions: mean EC50 (mean all), viral RNA by bDNA, read-out: bDNA EC50.

Where two headings read alike, the source gives them in different places. A value given as a limit tells only on which side of the number the result lay.

Consider `N#Cc1cnc(N[C@H]2CCCC[C@@H]2C(=O)O)nc1-c1c[nH]c2ncc(Cl)cc12` [Compound I-1, (1S,2S)-2-((4-(5-chloro-1H-pyrrolo[2,3-b]pyridin-3-yl)-5-cyanopyrimidine-2-yl)amino)-cyclohexanecarboxylic acid], for which, in assay [1], the IC50 is below 3.3 µM. Also, the EC50 in assay [2] (Influenza A virus, PR/8) was below 3.3 µM.

As to `O=C(N[C@@H]1CCC[C@H](Nc2nc(-c3c[nH]c4ncc(F)cc34)c(C(F)(F)F)cc2F)C1)N1CCCC1` (stereo in doubt) [Compound I-20, N-((1R,3S)-3-((3-fluoro-6-(5-fluoro-1H-pyrrolo[2,3-b]pyridin-3-yl)-5-(trifluoromethyl)-pyridin-2-yl)amino)cyclohexyl)pyrrolidine-1-carboxamide], in assay [1], the IC50 was below 3.3 µM. Further, the 50% effective concentration (EC50) in assay [2] (Influenza A virus, PR/8) was below 3.3 µM.

Consider `CN(C)C(=O)N[C@@H]1CCC[C@H](Nc2nc(-c3c[nH]c4ncc(F)cc34)c(F)cc2F)C1` [Compound I-17, 3-((1R,3S)-3-((3,5-difluoro-6-(5-fluoro-1H-pyrrolo[2,3-b]pyridin-3-yl)pyridin-2-yl)amino)cyclohexyl)-1,1-dimethylurea], for which the IC50 in assay [1] was below 3.3 µM. In addition, in assay [2] (Influenza A virus, PR/8), the EC50 was below 3.3 µM.

As to `CC1(C(=O)N[C@@H]2CCC[C@H](Nc3ncc(C#N)c(-c4c[nH]c5ncc(C(F)(F)F)cc45)n3)C2)CC1` [Compound I-6, N-((1R,3S)-3-((5-cyano-4-(5-(trifluoromethyl)-1H-pyrrolo[2,3-b]pyridin-3-yl)pyrimidin-2-yl)amino)cyclohexyl)-1-methylcyclopropanecarboxamide], the IC50 in assay [1] is below 3.3 µM. Further, the EC50 in assay [2] (Influenza A virus, PR/8) was below 3.3 µM.

Turning to `O=C(O)[C@H]1C2CCC(CC2)[C@@H]1Nc1nc(Cl)nc(-c2c[nH]c3ncc(F)cc23)n1` (racemic) [Compound I-44, (+/−)-trans-3-(4-chloro-6-(5-fluoro-1H-pyrrolo[2,3-b]pyridin-3-yl)-1,3,5-triazin-2-ylamino)bicyclo[2.2.2]octane-2-carboxylic acid], in assay [1], the IC50 is below 3.3 µM. For the same molecule, the EC50 in assay [2] (Influenza A virus, PR/8) is below 3.3 µM.

Turning to `O=C(N[C@@H]1CCC[C@H](Nc2nc(-c3c[nH]c4ncc(F)cc34)c(C(F)(F)F)cc2F)C1)N1CCCC1` [Compound I-19], in assay [1], the IC50 is below 3.3 µM. The EC50 in assay [2] (Influenza A virus, PR/8) was below 3.3 µM.

With `C[C@@H]1CCN(C(=O)N[C@@H]2CCC[C@H](Nc3nc(-c4c[nH]c5ncc(F)cc45)c(F)cc3F)C2)C1` [Compound I-16, (R)—N-((1R,3S)-3-((3,5-difluoro-6-(5-fluoro-1H-pyrrolo[2,3-b]pyridin-3-yl)-pyridin-2-yl)amino)cyclohexyl)-3-methylpyrrolidine-1-carboxamide], the IC50 in assay [1] is below 3.3 µM. Moreover, the EC50 in assay [2] (Influenza A virus, PR/8) was below 3.3 µM.

With `O=C(O)[C@@H]1C2CCC(CC2)[C@H]1Nc1nc(-c2c[nH]c3ncc(F)cc23)c(F)cc1F` [Compound I-27], the EC50 in assay [2] is below 3.3 µM.

Turning to `O=C(N[C@@H]1CCC[C@H](Nc2nc(-c3c[nH]c4ncc(F)cc34)c(F)cc2F)C1)N1CCCC1` [Compound I-15, N-((1R,3S)-3-((3,5-difluoro-6-(5-fluoro-1H-pyrrolo[2,3-b]pyridin-3-yl)pyridin-2-yl)amino)cyclohexyl)pyrrolidine-1-carboxamide], in assay [1], the IC50 was below 3.3 µM. In addition, the EC50 in assay [2] (Influenza A virus, PR/8) was below 3.3 µM.

Turning to `N#CC1(C(=O)N[C@@H]2CCC[C@H](Nc3nc(-c4c[nH]c5ncc(F)cc45)c(F)cc3F)C2)CC1` [Compound I-23], the IC50 in assay [1] was below 3.3 µM. For the same molecule, in assay [2] (Influenza A virus, PR/8), the EC50 is below 3.3 µM.

As to `O=C(O)[C@@H]1C2CCC(CC2)[C@H]1Nc1cnnc(-c2c[nH]c3ncc(F)cc23)n1` [Compound I-45], in assay [1], the IC50 is at least 3.3 µM. The EC50 in assay [2] (Influenza A virus, PR/8) was above 3.3 µM.

Turning to `COC(=O)[C@H]1C2CCC(CC2)[C@@H]1Nc1nc(-c2c[nH]c3ncc(Cl)cc23)c(F)cc1F` [Compound I-33, (2S,3S)-methyl 3-((6-(5-chloro-1H-pyrrolo[2,3-b]pyridin-3-yl)-3,5-difluoropyridin-2-yl)amino)bicyclo[2.2.2]octane-2-carboxylate], in assay [1], the IC50 is below 3.3 µM. Also, in assay [2] (Influenza A virus, PR/8), the EC50 was below 3.3 µM.

`Cn1cnc(C(=O)N[C@@H]2CCC[C@H](Nc3nc(-c4c[nH]c5ncc(F)cc45)c(F)cc3F)C2)c1` [Compound I-18, N-((1R,3S)-3-((3,5-difluoro-6-(5-fluoro-1H-pyrrolo[2,3-b]pyridin-3-yl)pyridin-2-yl)-amino)cyclohexyl)-1-methyl-1H-imidazole-4-carboxamide]: the IC50 in assay [1] was below 3.3 µM. Also, in assay [2] (Influenza A virus, PR/8), the EC50 is below 3.3 µM.

On to `N#Cc1cnc(N[C@H]2CCC[C@@H](C(=O)O)C2)nc1-c1c[nH]c2ncc(C(F)(F)F)cc12` [Compound I-4, (1R,3S)-3-((5-cyano-4-(5-(trifluoromethyl)-1H-pyrrolo[2,3-b]pyridin-3-yl)pyrimidin-2-yl)amino)cyclohexanecarboxylic acid], for which the IC50 in assay [1] is below 3.3 µM. For the same molecule, in assay [2] (Influenza A virus, PR/8), the EC50 was below 3.3 µM.

Turning to `N#Cc1cc(F)c(N[C@H]2CCC[C@@H](NC(=O)N3CCOCC3)C2)nc1-c1c[nH]c2ncc(Cl)cc12` [Compound I-11, N-((1R,3S)-3-((6-(5-chloro-1H-pyrrolo[2,3-b]pyridin-3-yl)-5-cyano-3-fluoro-pyridin-2-yl)amino)cyclohexyl)morpholine-4-carboxamide], the IC50 in assay [1] is below 3.3 µM. Also, the EC50 in assay [2] (Influenza A virus, PR/8) was below 3.3 µM.

Take `O=C(O)[C@H]1C2CCC(CC2)[C@@H]1Nc1nc(-c2c[nH]c3ncc(Cl)cc23)c(F)cc1F` [Compound I-34, (2S,3S)-3-((6-(5-chloro-1H-pyrrolo[2,3-b]pyridin-3-yl)-3,5-difluoropyridin-2-yl)amino)-bicyclo[2.2.2]octane-2-carboxylic acid]: the IC50 in assay [1] is below 3.3 µM. Moreover, the concentration for a half-maximal effect (EC50) in assay [2] (Influenza A virus, PR/8) was below 3.3 µM.

As to `N#Cc1cc(F)c(NC2C3CCC(CC3)C2C(=O)O)cc1-c1c[nH]c2ncc(F)cc12` (racemic) [Compound I-51, (+/−)-3-((4-cyano-2-fluoro-5-(5-fluoro-1H-pyrrolo[2,3-b]pyridin-3-yl)phenyl)amino)bicyclo[2.2.2]octane-2-carboxylic acid], the IC50 in assay [1] was below 3.3 µM. Moreover, the EC50 in assay [2] (Influenza A virus, PR/8) is below 3.3 µM.

Regarding `O=C(N[C@@H]1CCC[C@H](Nc2nc(-c3c[nH]c4ncc(F)cc34)c(F)cc2F)C1)N1CC[C@H](F)C1` [Compound I-24, (S)—N-((1R,3S)-3-((3,5-difluoro-6-(5-fluoro-1H-pyrrolo[2,3-b]pyridin-3-yl)pyridin-2-yl)-amino)cyclohexyl)-3-fluoropyrrolidine-1-carboxamide], the IC50 in assay [1] was below 3.3 µM. For the same molecule, the EC50 in assay [2] (Influenza A virus, PR/8) is below 3.3 µM.

Take `O=C(O)[C@H]1C2CCC(CC2)[C@@H]1Nc1nc(-c2c[nH]c3ncc(F)cc23)ccc1F` (racemic) [Compound I-35, (+/−) 3-(3-fluoro-6-(5-fluoro-1H-pyrrolo[2,3-b]pyridin-3-yl)pyridin-2-ylamino)bicyclo[2.2.2]octane-2-carboxylic acid]: the IC50 in assay [1] is below 3.3 µM. In addition, the EC50 in assay [2] (Influenza A virus, PR/8) was below 3.3 µM.

Regarding `N#Cc1cnc(N[C@H]2CCC[C@@H](C(=O)O)C2)nc1-c1c[nH]c2ncccc12` [Compound I-5], the IC50 in assay [1] is at least 3.3 µM.

Take “(+/−)-(exo)-7-((3,5-difluoro-6-(5-fluoro-1H-pyrrolo[2,3-b]pyridin-3-yl)pyridin-2-yl)amino)bicyclo[3.2.2]nonane-6-carboxylic acid [Compound I-36]”: the 50% effective concentration (EC50) in assay [2] was below 3.3 µM.
